Legend:
pancreas cancer patient = assay: Clinical course of pancreas cancer patient; format: in vivo, human
T cells (patient PBMCs) = assay: T-cell proliferation assay (3H-thymidine) of patient PBMC/T cells with hTERT peptides or transfected DC; format: cell-based, human; conditions: for response of clinical non-responders: GV1001-vaccinated; for immunological responses in clinical responders: patients responding / 7 clinical responders; for immunological responses in clinical non-responders: patients responding / 10 clinical non-responders; for proliferative T-cell response (detected or not): pancreas cancer patient vaccinated with DC/hTERT mRNA
Experimental: FIG. 1 is a bar graph summarising hTERT T-cell responses detected in pancreas cancer patient vaccinated with DC transfected with hTERT mRNA. In samples from various time points throughout a vaccination schedule, T-cell responses against 24 overlapping hTERT 15-mer peptides were detected. Proliferation in response to peptide-loaded PBMC was measured by ^3H-thymidine incorporation. A stimulation index of >2 is considered an immune response.
Peripheral blood mononuclear cells (PBMCs) were obtained prior to the four standard vaccinations, after 5 weeks and after 12 weeks. PBMCs were also obtained before each monthly booster vaccination. The PBMCs were isolated and frozen as previously described (Kyte et al, 2005). Thawed PBMCs were stimulated once in vitro with tDCs (not with mockDCs) and cultured and then tested in T cell proliferation assays (^3H Thymidine) as previously described (Kyte et al 2006). The T cells were tested in triplicates. Irradiated tDCs and mock-transfected DC controls (mockDCs) were used or PBMC with or without hTERT peptide as APCs. Negative controls with T cells only were included.
PBMCs from various time points were stimulated with an overlapping hTERT 15-mer peptide library or a 30-mer hTERT peptide, all from ProImmune and then tested in proliferation assays as above using irradiated PBMCs as APCs as described in (Bernhardt et al 2006).
T-cell responses to a hTERT peptide library (including the polypeptides from Table 1) were determined for T-cells from 5 patients in addition to the patients reported in Examples 1 and 2. The methods were the same as previously described in Example 1 or in Bernhardt et al 2006. In brief, PBMCs from various time points during vaccination were stimulated with the overlapping hTERT peptide library prior to testing for specific T-cell responses in proliferation assays.
The proliferative T-cell responses of each patient to a series of peptides were then determined as explained in Example 1. The results are tabulated in Table 5 and are shown graphically in FIG. 14 in which the peptide designations are referenced in Table 6 (the results for peptides 726 and GV1001 are shown only for comparison).
Four patients who were clinical non-responders following a lung cancer diagnosis and a GV1001 (SEQ ID NO. 10) peptide vaccination were studied. These patients were all stage IV lung cancer patients vaccinated with GV1001. […] The proliferative T-cell responses of each patient to a series of peptides were determined in the same manner as in Example 1, at one time point. The peak response of each patient during the study period to peptide GV1001 is also shown which confirms that each patient responded immunologically to GV1001 vaccination.
Six patients who were clinical non-responders following a melanoma cancer diagnosis and a GV1001 peptide (SEQ ID NO. 10) vaccination were studied. These patients were all stage IV melanoma patients and included in the same GV1001 vaccination trial as melanoma patients P7 and P8 who were long term survivors (see Example 6). […] Five of the patients also experienced progressive disease and one patient, designated Melanoma P3, experienced some stabilization of the disease but still had short survival. The proliferative T-cell responses of each patient to a series of peptides were determined in the same manner as in Example 1, at one time point. The peak response of each patient during the study period to peptide GV1001 is also shown which confirms that each patient responded immunologically to GV1001 vaccination.

[1] = tested on: CD8+ T cells (patient PBMCs); assay: Pentamer staining of hTERT-specific CD8+ T cells by flow cytometry; format: cell-based, human; conditions: for patients with CTL responses shown by pentamer analysis: patients of Examples 1 to 8; for peptide-specific CD8+ T lymphocytes detected by pentamer: HLA-B7+ lung cancer patient in complete remission after GV1001 vaccination, up to six years (FIG. 6)
CD4+ T-cell clones = assay: Peptide-specific T-cell clones from patients (HLA class II allele, peptide titration); format: cell-based, human
Excerpt: A value above 2 is considered as a positive response.
T-cell clones specific for all of the peptides of 15- or 30-amino acids shown in Table 1 have also been obtained from patients. […] This is important in order to be able to induce strong immune response in vivo where peptide concentrations are lower.
In addition, the 15- and 30-mer peptides listed in Table 1 show reactivity in nearly all patients tested, which means they are promiscuous with respect to the HLA class II alleles on which they are presented and that they are applicable to nearly the whole population without any need for HLA-screening (see Table 2).

[2] = tested on: T cells stimulated with peptide-loaded autologous EBV-LCL; assay: Intracellular cytokine staining of peptide-stimulated T cells; format: cell-based, human
[3] = four stage IV lung cancer patients
[4] = patient Colon ca P1, GV1001-vaccinated, clinical responder
[5] = patient Lung ca P1, GV1001-vaccinated, clinical non-responder, one time point
[6] = patient Lung ca P2, GV1001-vaccinated, clinical non-responder, one time point
[7] = patient Lung ca P3, GV1001-vaccinated, clinical non-responder, one time point
[8] = patient Lung ca P4, GV1001-vaccinated, clinical non-responder, one time point
[9] = patient Lung ca P5, GV1001-vaccinated, clinical responder
[10] = patient Lung ca P6, DC/hTERT mRNA-vaccinated, clinical responder, high background
[11] = patient Melanoma P1, GV1001-vaccinated, clinical non-responder, one time point
[12] = patient Melanoma P2, GV1001-vaccinated, clinical non-responder, one time point
[13] = patient Melanoma P3, GV1001-vaccinated, clinical non-responder, one time point
[14] = patient Melanoma P4, GV1001-vaccinated, clinical non-responder, one time point
[15] = patient Melanoma P5, GV1001-vaccinated, clinical non-responder, one time point
[16] = patient Melanoma P6, GV1001-vaccinated, clinical non-responder, one time point
[17] = patient Melanoma P7, GV1001-vaccinated, clinical responder
[18] = patient Melanoma P8, GV1001-vaccinated, clinical responder
[19] = patient Melanoma P9, non-vaccinated, spontaneous response
[20] = patient Pancreas ca P1, DC/hTERT mRNA-vaccinated, clinical responder, high background
[21] = GV1001 vaccinated lung cancer patient
[22] = HLA class II allele DR*04, 3 patients, malignant melanoma

Row | Compound | response of clinical non-responders (T cells (patient PBMCs); [3]) | proliferative T-cell response (SI) (T cells (patient PBMCs); [4]) | proliferative T-cell response (SI) (T cells (patient PBMCs); [5]) | proliferative T-cell response (SI) (T cells (patient PBMCs); [6]) | proliferative T-cell response (SI) (T cells (patient PBMCs); [7]) | proliferative T-cell response (SI) (T cells (patient PBMCs); [8]) | proliferative T-cell response (SI) (T cells (patient PBMCs); [9]) | proliferative T-cell response (SI) (T cells (patient PBMCs); [10]) | proliferative T-cell response (SI) (T cells (patient PBMCs); [11]) | proliferative T-cell response (SI) (T cells (patient PBMCs); [12]) | proliferative T-cell response (SI) (T cells (patient PBMCs); [13]) | proliferative T-cell response (SI) (T cells (patient PBMCs); [14]) | proliferative T-cell response (SI) (T cells (patient PBMCs); [15]) | proliferative T-cell response (SI) (T cells (patient PBMCs); [16]) | proliferative T-cell response (SI) (T cells (patient PBMCs); [17]) | proliferative T-cell response (SI) (T cells (patient PBMCs); [18]) | proliferative T-cell response (SI) (T cells (patient PBMCs); [19]) | proliferative T-cell response (SI) (T cells (patient PBMCs); [20]) | immunological responses in clinical responders (T cells (patient PBMCs)) | response of clinical non-responders (T cells (patient PBMCs); six stage IV melanoma patients) | further results
1 | Nc1ccn([C@@H]2O[C@H](CO)[C@@H](O)C2(F)F)c(=O)n1 [gemcitabine] | – | – | – | – | – | – | – | – | – | – | – | – | – | – | – | – | – | – | – | – | adverse effects (pancreas cancer patient; after 5 months): suspended due to adverse effects; Clinical response (pancreas cancer patient; before DC vaccination): disease stabilization
2 | AERLTSRVKALFSVL (listed as Homo sapiens) [SEQ ID NO. 9] | very low or no response | 13.9 | 0.8 | 0.6 | 0.8 | 0.7 | 1.2 | 0.7 | 0.8 | 0.6 | 0.5 | 0.8 | 0.9 | 1.3 | 3.2 | 1 | 5.9 | 1 | 3/7 | very low or no response | immunological responses in clinical non-responders (T cells (patient PBMCs)): 0/10; patients with CTL responses shown by pentamer analysis [1]: 3
3 | ALFSVLNYERARRPGLLGASVLGLDDIHRA [SEQ ID NO. 1] | very low or no response | 27.2 | 1 | 1.1 | 0.9 | 1.5 | 44.5 | 2.5 | 1.6 | 5.3 | 0.3 | 1 | 1.9 | 1.8 | 44.5 | 5.7 | 6.9 | 17.1 | 7/7 | very low or no response | T-cell response (T cells (patient PBMCs); [21]): very strong responses; reactivity in cancer patients tested (T cells (patient PBMCs); cancer patients, mostly vaccinated): reactivity in nearly all the cancer patients tested; T-cell response compared with the vaccine peptide GV1001 (T cells (patient PBMCs); one patient vaccinated with GV1001, certain time points (FIG. 3)): even stronger than to the vaccine peptide itself; proliferative T-cell response (detected or not) (T cells (patient PBMCs)): Proliferative T-cell responses were detected; immunological responses in clinical non-responders (T cells (patient PBMCs)): 1/10; T-cell clones derived from the culture with the peptide that were specific (CD4+ T-cell clones; [21]): 75%; Specific clones (CD4+ T-cell clones; HLA class II allele DR*07, specificity printed as 'Part of 660-689', 1 patient, colon cancer, Schroers et al, 2003): 3; Specific clones (CD4+ T-cell clones; HLA class II allele DR*14, 2 patients, colon cancer, lung cancer): 6 clones; CD8+ T cell population after stimulation with peptide-loaded versus non-peptide loaded targets ([2]; pancreas cancer patient (data not shown)): no difference in the CD8+ T cell population; CD4+ T cells secreting IFN-γ, IL-4 and TNF-α ([2]; pancreas cancer patient, one round of in vitro stimulation, autologous EBV-transformed B-cells loaded with same peptide): small population of multifunctional CD4+ T cells; patients with CTL responses shown by pentamer analysis [1]: Several
4 | PGLLGASVLGLDDIH (listed as Homo sapiens) [SEQ ID NO. 55] | – | – | – | – | – | – | – | – | – | – | – | – | – | – | – | – | – | – | – | – | proliferative T-cell response (detected or not) (T cells (patient PBMCs)): recognized by T cells
5 | RLTSRVKALFSVLNY (listed as Homo sapiens) [SEQ ID NO. 8] | very low or no response | 2.6 | 1.2 | 0.9 | 1.1 | 1.1 | 0.8 | 2.1 | 0.9 | 0.8 | 0.6 | 1.1 | 7.1 | 0.8 | 4.8 | 6.3 | 4.2 | 1.3 | – | very low or no response | Specific clones (CD4+ T-cell clones; [22]): 3
6 | RPALLTSRL (listed as Homo sapiens) [SEQ ID NO. 5] | – | – | – | – | – | – | – | – | – | – | – | – | – | – | – | – | – | – | – | – | peptide-specific CD8+ T lymphocytes detected by pentamer [1]: stable CD8+ T cell population
7 | RPGLLGASVL (listed as Homo sapiens) [SEQ ID NO. 25] | – | – | – | – | – | – | – | – | – | – | – | – | – | – | – | – | – | – | – | – | peptide-specific CD8+ T lymphocytes detected by pentamer [1]: second minor CTL population
8 | RTFVLRVRAQDPPPE (listed as Homo sapiens) [SEQ ID NO. 7] | very low or no response | 20.6 | 1.3 | 1 | 1.2 | 0.4 | 1.1 | 0.8 | 0.9 | 1 | 0.7 | 1 | 1.2 | 4.8 | 4.9 | 2.8 | 5.7 | 2.5 | 5/7 | very low or no response | immunological responses in clinical non-responders (T cells (patient PBMCs)): 1/10
9 | SVLNYERARRPGLLG (listed as Homo sapiens) [SEQ ID NO. 2] | – | – | – | – | – | – | – | – | – | – | – | – | – | – | – | – | – | – | – | – | Specific clones (CD4+ T-cell clones; HLA class II allele DR*01, 2 patients, malignant melanoma): T-cell lines; Specific clones (CD4+ T-cell clones; [22]): 3; Specific clones (CD4+ T-cell clones; HLA class II allele DR*08, 2 patients, malignant melanoma and lung cancer): >85

From US11998595B2, “Telomerase polypeptide vaccine for treating cancer” (Ultimovacs AS, priority 2010, dated 2024)
